Each structure is given as a SMILES string.

In the assay the test system is human platelets. The experiment in a line: U46619-induced human platelet aggregation ex vivo in platelet rich plasma. It is filed as cell-based. The note with it: fold less potent than TP20. The text has this:
A modification of the turbidimetric method originally developed by Born & Cross (Born, G. V. and Cross, M. J., The Aggregation of Blood Platelets, J Physiol, 1963, 168:178-95) is used. The principle is based on the diffraction of the light by particles. When a light beam passes through a suspension of particles, it is diffracted, depending on the number and the size of the particles in suspension.
In the Born & Cross method, a light beam passes through a platelet suspension and the quantity of light is measured by a detector placed after the sample. Upon platelet aggregation, the size of platelet aggregates will increase while the total number of free platelets will decrease. Consequently, less light will be diffracted and the detector will record an increase in light intensity. The aggregometer has been developed based on these concepts. Variations in light transmission recorded by this device reflects the platelet physiology. When an agonist of platelet aggregation is added to a platelet suspension, platelets undergo activation and shape change. […]
Light transmission (T) is measured throughout all the experiment, which is ended 8 minutes after induction of aggregation. Maximal light transmission (Tmax) is determined in the sample without drugs. Minimal light transmission (Tmin) is measured in PRP without inducer. […]

Regarding `COc1ccc(-c2cccc(Oc3ccc(C#N)cc3S(=O)(=O)NC(=O)NC(C)(C)C)c2)cc1` [NTP4, N-(tert-butylcarbamoyl)-5-cyano-2-((4′-methoxy-[1,1′-biphenyl]-3-yl)oxy)benzenesulfonamide], the “Potency relative to TP20, inhibition of U46619-mediated platelet aggregation” value is reported as “approx. ten-fold”.

For the origin of these results see US9738599B2, “Thromboxane receptor antagonists” (UNIVERSITY COLLEGE DUBLIN, NATIONAL UNIVERSITY OF IRELAND, …, priority 2012, dated 2017).
